From ChEMBL document CHEMBL3608217, “Discovery of novel bridged tetrahydronaphthalene derivatives as potent T/L-type calcium channel blockers” (Bioorg Med Chem Lett, 2015)
In brackets after ≈: the same amount, converted by molar mass.

Experiments:
[1] = target: Voltage-dependent T-type calcium channel subunit alpha-1H (Homo sapiens, UniProt O95180); assay: Inhibition of recombinant Cav3.2 channel (unknown origin) expressed in HEK293 cells assessed as effect on calcium flux incubated for 3 mins by FLIPR assay; assay type: cell-based
[2] = target: Voltage-dependent L-type calcium channel subunit alpha-1C (Homo sapiens, UniProt Q13936); assay: Inhibition of recombinant Cav1.2 channel (unknown origin) expressed in HEK293 cells assessed as effect on calcium flux incubated for 3 mins by FLIPR assay; assay type: cell-based
[3] = system: Heart; assay: Increase in coronary flow in Wistar rat Langendorff isolated perfused heart; assay type: functional, tissue-based
[4] = system: Rattus norvegicus; assay: Antihypertensive activity in freely moving conscious spontaneously hypertensive rat at assessed as reduction in mean arterial pressure at 10 mg/kg, po administered as single dose in morning at end of wake phase measured after 6 hrs by telemetry; assay type: functional, Artery
[5] = system: Rattus norvegicus; assay: Antihypertensive activity in freely moving conscious spontaneously hypertensive rat at assessed as area between curve for reduction in mean arterial pressure at 10 mg/kg, po administered as single dose in morning at end of wake phase by telemetry; assay type: functional, Artery
[6] = target: T1, Cytochrome P450 3A4 (Homo sapiens, UniProt P08684); assay: Inhibition of CYP3A4 in human liver microsomes assessed as reduction in testosterone 6beta-hydroxylation by LC-MS/MS method; assay type: ADME
[7] = target: T1, Cytochrome P450 3A4; assay: Inhibition of CYP3A4 in human liver microsomes assessed as reduction in midazolam 1'-hydroxylation by LC-MS/MS method; assay type: ADME
[8] = target: T1, Cytochrome P450 3A4; assay: Time dependent inhibition of CYP3A4 in human liver microsomes assessed as reduction in testosterone 6beta-hydroxylation incubated for 60 mins in presence of NADPH generating system by LC-MS/MS method; assay type: ADME
[9] = target: Cytochrome P450 2D6 (Homo sapiens, UniProt P10635); assay: Inhibition of CYP2D6 in human liver microsomes assessed as reduction in dextromethorphan-O demethylation by LC-MS/MS method; assay type: ADME
[10] = target: Cytochrome P450 2C9 (Homo sapiens, UniProt P11712); assay: Inhibition of CYP2C9 in human liver microsomes assessed as reduction in diclofenac 4'-hydroxylation by LC-MS/MS method; assay type: ADME
[11] = target: Voltage-gated inwardly rectifying potassium channel KCNH2 (Homo sapiens, UniProt Q12809); assay: Inhibition of human ERG expressed in HEK cells by patch clamp assay
[12] = AUC in Wistar rat at 10 mg/kg, po; assay type: ADME, organism-based; conditions: in vivo
[13] = Cmax in Wistar rat at 10 mg/kg, po; assay type: ADME, organism-based; design: dose 10 mg/kg, route oral; conditions: in vivo
[14] = Half life in Wistar rat at 10 mg/kg, po or 1 mg/kg, iv; assay type: ADME, organism-based; conditions: in vivo
[15] = Clearance in Wistar rat at 10 mg/kg, po or 1 mg/kg, iv; assay type: ADME, organism-based; conditions: in vivo
[16] = Volume of distribution at steady state in Wistar rat at 10 mg/kg, po or 1 mg/kg, iv; assay type: ADME, organism-based; conditions: in vivo, read-out: Vdss
[17] = Oral bioavailability in Wistar rat at 10 mg/kg; assay type: ADME, organism-based; conditions: in vivo
[18] = Protein binding in human plasma; assay type: ADME, cell-free; conditions: read-out: PPB
[19] = Protein binding in rat plasma; assay type: ADME, cell-free; conditions: read-out: PPB (converted)
[20] = Distribution coefficient, log D of the compound at pH 7.4; assay type: physicochemical; conditions: octanol/water
[21] = Solubility in Water at pH 4; assay type: physicochemical
[22] = Solubility in 0.1M HCl; assay type: physicochemical
[23] = Solubility in pH 7.0 buffer; assay type: physicochemical
[24] = system: Rattus norvegicus; assay: Antihypertensive activity in freely moving conscious spontaneously hypertensive rat at assessed as time duration for reduction in mean arterial pressure at 10 mg/kg, po administered as single dose in morning at end of wake phase by telemetry; assay type: functional, Artery
[25] = Rattus norvegicus, Wistar, Heart

Chain of Voltage-dependent T-type calcium channel subunit alpha-1H (O95180 whole entry): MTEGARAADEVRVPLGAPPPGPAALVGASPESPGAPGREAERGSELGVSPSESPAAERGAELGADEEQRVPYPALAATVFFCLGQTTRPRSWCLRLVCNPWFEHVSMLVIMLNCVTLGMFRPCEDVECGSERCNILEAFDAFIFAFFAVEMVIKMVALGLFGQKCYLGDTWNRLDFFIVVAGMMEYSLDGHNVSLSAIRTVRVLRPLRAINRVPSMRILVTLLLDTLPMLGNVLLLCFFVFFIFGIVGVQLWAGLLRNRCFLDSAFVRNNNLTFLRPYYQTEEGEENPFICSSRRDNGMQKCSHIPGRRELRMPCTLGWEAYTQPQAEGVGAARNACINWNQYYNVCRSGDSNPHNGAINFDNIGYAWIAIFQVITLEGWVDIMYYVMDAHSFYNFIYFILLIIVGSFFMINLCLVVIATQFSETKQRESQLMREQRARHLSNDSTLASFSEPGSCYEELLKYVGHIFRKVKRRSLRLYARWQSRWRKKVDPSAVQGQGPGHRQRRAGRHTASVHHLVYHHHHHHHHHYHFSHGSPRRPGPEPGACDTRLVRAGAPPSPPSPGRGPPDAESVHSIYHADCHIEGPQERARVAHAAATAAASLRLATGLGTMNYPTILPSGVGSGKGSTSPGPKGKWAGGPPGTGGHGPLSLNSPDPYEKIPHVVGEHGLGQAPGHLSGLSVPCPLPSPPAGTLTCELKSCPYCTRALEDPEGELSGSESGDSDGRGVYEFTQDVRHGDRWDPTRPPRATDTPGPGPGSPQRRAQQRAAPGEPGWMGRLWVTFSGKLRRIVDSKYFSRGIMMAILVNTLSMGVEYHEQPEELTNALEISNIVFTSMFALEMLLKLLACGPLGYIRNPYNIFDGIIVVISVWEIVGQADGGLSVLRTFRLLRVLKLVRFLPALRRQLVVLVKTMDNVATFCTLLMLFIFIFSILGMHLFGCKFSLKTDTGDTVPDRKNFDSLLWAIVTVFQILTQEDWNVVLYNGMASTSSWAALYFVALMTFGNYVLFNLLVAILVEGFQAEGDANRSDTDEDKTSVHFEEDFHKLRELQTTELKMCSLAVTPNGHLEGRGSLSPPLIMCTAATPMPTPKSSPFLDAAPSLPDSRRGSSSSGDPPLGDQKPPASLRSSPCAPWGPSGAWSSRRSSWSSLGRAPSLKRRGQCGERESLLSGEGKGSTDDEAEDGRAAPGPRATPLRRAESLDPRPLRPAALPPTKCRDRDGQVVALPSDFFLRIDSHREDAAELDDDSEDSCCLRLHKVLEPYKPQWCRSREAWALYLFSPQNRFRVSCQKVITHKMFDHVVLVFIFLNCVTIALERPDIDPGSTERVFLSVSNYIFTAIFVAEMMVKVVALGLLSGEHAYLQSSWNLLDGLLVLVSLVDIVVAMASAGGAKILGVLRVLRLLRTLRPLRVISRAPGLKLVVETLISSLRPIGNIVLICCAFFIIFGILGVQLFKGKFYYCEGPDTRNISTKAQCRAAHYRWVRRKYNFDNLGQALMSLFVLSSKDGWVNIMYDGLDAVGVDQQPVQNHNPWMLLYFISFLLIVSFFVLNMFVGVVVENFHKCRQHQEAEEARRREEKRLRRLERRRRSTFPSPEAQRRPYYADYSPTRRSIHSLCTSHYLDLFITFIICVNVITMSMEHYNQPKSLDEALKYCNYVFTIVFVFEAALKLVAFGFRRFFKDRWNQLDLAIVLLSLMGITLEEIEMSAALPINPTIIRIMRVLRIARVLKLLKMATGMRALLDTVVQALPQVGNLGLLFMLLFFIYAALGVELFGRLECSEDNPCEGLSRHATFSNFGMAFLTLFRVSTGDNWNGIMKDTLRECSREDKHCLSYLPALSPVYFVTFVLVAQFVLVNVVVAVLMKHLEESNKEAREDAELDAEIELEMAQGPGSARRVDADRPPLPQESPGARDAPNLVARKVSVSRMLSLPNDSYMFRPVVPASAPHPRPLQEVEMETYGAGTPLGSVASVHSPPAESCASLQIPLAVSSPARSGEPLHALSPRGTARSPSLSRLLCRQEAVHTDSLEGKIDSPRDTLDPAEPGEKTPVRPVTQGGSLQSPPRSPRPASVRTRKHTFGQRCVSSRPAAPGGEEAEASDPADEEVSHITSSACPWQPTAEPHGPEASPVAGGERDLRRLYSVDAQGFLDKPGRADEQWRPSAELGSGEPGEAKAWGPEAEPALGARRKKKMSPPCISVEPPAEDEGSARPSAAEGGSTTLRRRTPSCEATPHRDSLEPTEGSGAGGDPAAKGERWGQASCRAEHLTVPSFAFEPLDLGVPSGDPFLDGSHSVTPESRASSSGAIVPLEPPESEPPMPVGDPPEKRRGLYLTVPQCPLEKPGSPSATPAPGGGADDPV
Chain of Voltage-dependent L-type calcium channel subunit alpha-1C (Q13936 whole entry, the tested form may be a part): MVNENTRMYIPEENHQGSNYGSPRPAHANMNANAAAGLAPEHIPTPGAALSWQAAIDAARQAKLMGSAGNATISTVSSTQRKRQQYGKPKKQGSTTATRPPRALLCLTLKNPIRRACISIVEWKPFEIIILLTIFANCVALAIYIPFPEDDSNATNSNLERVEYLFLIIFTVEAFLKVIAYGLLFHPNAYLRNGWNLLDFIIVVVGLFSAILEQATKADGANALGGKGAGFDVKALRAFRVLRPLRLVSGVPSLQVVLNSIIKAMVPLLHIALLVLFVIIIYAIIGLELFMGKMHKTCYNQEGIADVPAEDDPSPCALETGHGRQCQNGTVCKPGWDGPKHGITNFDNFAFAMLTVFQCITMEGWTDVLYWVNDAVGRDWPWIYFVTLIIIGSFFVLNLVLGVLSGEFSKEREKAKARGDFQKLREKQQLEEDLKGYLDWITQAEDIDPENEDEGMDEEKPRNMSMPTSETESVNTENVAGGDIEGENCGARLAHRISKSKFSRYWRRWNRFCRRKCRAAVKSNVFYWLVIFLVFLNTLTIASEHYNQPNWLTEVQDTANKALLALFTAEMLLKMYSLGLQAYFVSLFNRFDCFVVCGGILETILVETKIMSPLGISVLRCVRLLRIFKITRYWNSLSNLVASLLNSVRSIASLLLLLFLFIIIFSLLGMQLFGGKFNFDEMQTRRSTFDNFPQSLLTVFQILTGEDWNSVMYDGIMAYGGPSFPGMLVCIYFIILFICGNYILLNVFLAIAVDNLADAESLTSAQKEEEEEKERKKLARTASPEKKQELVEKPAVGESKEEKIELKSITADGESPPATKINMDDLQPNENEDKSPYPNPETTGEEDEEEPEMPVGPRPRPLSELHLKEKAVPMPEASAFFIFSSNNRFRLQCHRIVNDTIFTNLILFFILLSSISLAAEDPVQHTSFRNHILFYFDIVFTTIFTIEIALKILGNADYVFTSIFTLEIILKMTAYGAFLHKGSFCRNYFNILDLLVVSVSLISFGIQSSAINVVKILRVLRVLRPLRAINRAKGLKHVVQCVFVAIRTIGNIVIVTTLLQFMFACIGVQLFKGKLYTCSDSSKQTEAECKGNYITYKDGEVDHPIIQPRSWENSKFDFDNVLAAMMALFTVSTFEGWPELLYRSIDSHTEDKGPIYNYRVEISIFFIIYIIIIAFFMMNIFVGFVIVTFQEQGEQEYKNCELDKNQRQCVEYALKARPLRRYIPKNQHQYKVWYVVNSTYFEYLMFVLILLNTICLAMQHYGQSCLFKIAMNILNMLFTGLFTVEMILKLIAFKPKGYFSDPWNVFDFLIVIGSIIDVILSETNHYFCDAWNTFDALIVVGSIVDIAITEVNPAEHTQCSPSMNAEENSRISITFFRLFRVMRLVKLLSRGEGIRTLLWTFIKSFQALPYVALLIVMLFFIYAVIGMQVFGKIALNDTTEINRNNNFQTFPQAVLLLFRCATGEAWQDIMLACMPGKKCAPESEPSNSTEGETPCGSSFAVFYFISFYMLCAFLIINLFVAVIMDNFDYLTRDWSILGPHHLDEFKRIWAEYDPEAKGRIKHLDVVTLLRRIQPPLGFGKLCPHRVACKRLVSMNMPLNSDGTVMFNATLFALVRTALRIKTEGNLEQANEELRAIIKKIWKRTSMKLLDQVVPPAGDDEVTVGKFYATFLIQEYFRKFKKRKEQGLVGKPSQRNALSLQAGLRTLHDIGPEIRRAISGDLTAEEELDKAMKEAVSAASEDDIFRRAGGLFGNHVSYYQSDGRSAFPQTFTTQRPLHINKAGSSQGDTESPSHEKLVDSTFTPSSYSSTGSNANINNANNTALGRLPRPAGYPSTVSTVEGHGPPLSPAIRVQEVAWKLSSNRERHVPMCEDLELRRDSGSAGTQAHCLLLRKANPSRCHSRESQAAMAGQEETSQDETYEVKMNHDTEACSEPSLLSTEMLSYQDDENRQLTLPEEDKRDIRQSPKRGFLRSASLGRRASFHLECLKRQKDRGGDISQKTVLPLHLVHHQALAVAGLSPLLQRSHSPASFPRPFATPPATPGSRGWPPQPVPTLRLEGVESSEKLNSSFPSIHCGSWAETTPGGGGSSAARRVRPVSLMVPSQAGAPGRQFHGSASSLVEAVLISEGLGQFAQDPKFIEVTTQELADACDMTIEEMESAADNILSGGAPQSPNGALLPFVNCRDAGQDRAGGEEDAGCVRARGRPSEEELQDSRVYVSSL
T1 sequence (P08684 whole entry): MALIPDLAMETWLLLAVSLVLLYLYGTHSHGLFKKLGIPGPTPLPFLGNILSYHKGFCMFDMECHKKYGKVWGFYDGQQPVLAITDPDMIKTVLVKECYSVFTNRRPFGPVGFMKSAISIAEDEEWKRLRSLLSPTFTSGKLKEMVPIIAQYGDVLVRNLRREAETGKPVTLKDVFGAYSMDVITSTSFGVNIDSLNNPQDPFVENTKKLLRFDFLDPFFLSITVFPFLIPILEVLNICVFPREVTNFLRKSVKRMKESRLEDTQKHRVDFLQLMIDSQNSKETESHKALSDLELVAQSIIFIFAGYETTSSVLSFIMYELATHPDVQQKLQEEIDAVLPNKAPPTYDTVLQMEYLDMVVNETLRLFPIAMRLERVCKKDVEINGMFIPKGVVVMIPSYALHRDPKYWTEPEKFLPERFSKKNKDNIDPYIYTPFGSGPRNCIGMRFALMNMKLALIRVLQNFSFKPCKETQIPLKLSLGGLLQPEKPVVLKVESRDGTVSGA

With CO[C@]1(CCN(C)CCCc2nc3ccccc3[nH]2)C[C@@H]2CC[C@H]1c1ccccc12 (racemic) the IC50 [1] was 224 nM, the IC50 [2] was 2670 nM and the EC50 [3, 25] was over 300 nM.
With CC(C)C(=O)O[C@]1(CCN(C)CCCc2nc3ccccc3[nH]2)CCc2cc(F)ccc2[C@@H]1C(C)C the IC50 [1] was 149 nM, the IC50 [2] was 347 nM and the EC50 [3, 25] was 20 nM.
With CC(C)C(=O)O[C@]1(CCN(C)CCCc2nc3ccccc3[nH]2)C[C@@H]2CCC[C@H]1c1ccccc12 (racemic) the IC50 [1] was 217 nM, the IC50 [2] was 437 nM and the EC50 [3] was 39 nM.
Work on CC(C)C(=O)O[C@]1(CCN(C)CCCc2nc3ccccc3[nH]2)C[C@H](OCc2ccccc2)c2cc(F)ccc2[C@@H]1C(C)C yielded an IC50 [1] of 113 nM, an IC50 [2] of 225 nM and an EC50 [3, 25] of 16 nM.
CCCC[C@@H]1C[C@@](CCN(C)CCCc2nc3ccccc3[nH]2)(OC(=O)COC)[C@@H](C(C)C)c2ccc(F)cc21 showed an IC50 [1] of 193 nM, an IC50 [2] of 173 nM and an EC50 [3, 25] of 23 nM.
For CC(C)C(=O)O[C@@]1(CCN(C)CCCc2nc3ccccc3[nH]2)C[C@H]2CC[C@@H]1c1ccccc12, the IC50 [1] was 398 nM, the IC50 [2] was 424 nM and the EC50 [3, 25] was 26 nM.
For COCC(=O)O[C@]1(CCN(C)CCCc2nc3ccccc3[nH]2)CC(C)(C)c2cc(F)ccc2[C@@H]1C(C)C, the IC50 [1] was 207 nM and the IC50 [2] was 434 nM.
COCC(=O)O[C@]1(CCN(C)CCCc2nc3ccccc3[nH]2)CCc2cc(F)ccc2[C@@H]1C(C)C [MIBEFRADIL] showed an EC50 [3, 25] of 26 nM, an Activity [4] of 32 mmHg and an ABC [5] of 437 mmHg.hr.
In the case of CC(C)C(=O)O[C@]1(CCN(C)CCCc2nc3ccccc3[nH]2)C[C@@H]2CCC[C@H]1c1ccccc12, the IC50 [1] is reported as 225 nM, the IC50 [2] is reported as 648 nM and the EC50 [3, 25] is reported as 26 nM.
In the case of COc1cccc2nc(CCCN(C)CC[C@]3(OC(=O)C(C)C)C[C@H]4CCC[C@@H]3c3ccccc34)[nH]c12, the IC50 [1] is reported as 84 nM, the IC50 [2] is reported as 387 nM and the EC50 [3, 25] is reported as 7 nM. For the same molecule, the IC50 [6] was 5500 nM, the IC50 [7] was 3000 nM and the IC50 [8] was 34000 nM. For the same molecule, the IC50 [9] was 1400 nM, the IC50 [10] was 32000 nM and the IC50 [11] was under 400 nM. It also gave an AUC [12] of 198 ng·h/mL, a Cmax [13] of 64 ng/mL and a half-life [14] of 2.2 h. The clearance [15] was 58 mL/min/kg, the Vd [16] was 7.1 L/kg and the bioavailability [17] was 7%. The fraction unbound [18] was under 0.001, the fraction unbound [19] was 0.002 and the logD [20] was 2.7. It also gave a solubility [21] of 734 µg/mL (≈ 1460 µM), a solubility [22] of 681 µg/mL (≈ 1350 µM) and a solubility [23] of 119 µg/mL (≈ 236 µM). The Activity [4] was 35 mmHg, the ABC [5] was 377 mmHg.hr and the Time [24] was 24 h.
With CO[C@@H]1C[C@@](CCN(C)CCCc2nc3ccccc3[nH]2)(OC(=O)C(C)C)[C@@H](C(C)C)c2ccc(F)cc21 the IC50 [1] was 557 nM, the IC50 [2] was 588 nM and the EC50 [3, 25] was 29 nM.
CC(C)C(=O)O[C@]1(CCN(C)CCCc2nc3ccccc3[nH]2)C[C@H](O)c2cc(F)ccc2[C@@H]1C(C)C showed an IC50 [1] of 76 nM, an IC50 [2] of 426 nM and an EC50 [3, 25] of 38 nM.
For CC(C)C(=O)O[C@]1(CCN(C)CCCc2nc3ccccc3[nH]2)C[C@@H](OCc2ccccc2)c2cc(F)ccc2[C@@H]1C(C)C, the IC50 [1] was 132 nM, the IC50 [2] was 156 nM and the EC50 [3, 25] was 20 nM.
CC(C)C(=O)O[C@@]1(CCN(C)CCCc2nc3ccccc3[nH]2)C[C@H]2CCC[C@@H]1c1ccccc12 showed an IC50 [1] of 184 nM, an IC50 [2] of 455 nM and an EC50 [3, 25] of 22 nM.
CN(CCCc1nc2ccccc2[nH]1)CC[C@@]1(OC(=O)C2CC2)C[C@@H]2CC[C@H]1c1ccccc12 (racemic) showed an IC50 [1] of 210 nM, an IC50 [2] of 140 nM and an EC50 [3, 25] of 77 nM.
CC(C)C(=O)O[C@]1(CCN(C)CCCc2nc3ccccc3[nH]2)C[C@@H]2CC[C@H]1c1ccccc12 showed an IC50 [1] of 350 nM, an IC50 [2] of 699 nM and an EC50 [3] of over 150 nM.
In the case of CC(C)C(=O)O[C@]1(CCN(C)CCCc2nc3ccccc3[nH]2)C[C@@H](O)c2cc(F)ccc2[C@@H]1C(C)C, the IC50 [1] is reported as 107 nM, the IC50 [2] is reported as 504 nM and the EC50 [3, 25] is reported as 134 nM.
Molecule CO[C@H]1C[C@@](CCN(C)CCCc2nc3ccccc3[nH]2)(OC(=O)C(C)C)[C@@H](C(C)C)c2ccc(F)cc21 has an IC50 [1] of 318 nM, an IC50 [2] of 403 nM and an EC50 [3, 25] of 40 nM.
For CC(C)C(=O)O[C@]1(CCN(C)CCCc2nc3ccccc3[nH]2)C[C@@H]2CC[C@H]1c1ccccc12 (racemic), the IC50 [1] was 432 nM, the IC50 [2] was 533 nM and the EC50 [3] was 42 nM.
CC(C)C(=O)O[C@]1(CCN(C)CCCc2nc3ccccc3[nH]2)C[C@@H]2CC[C@H]1c1nccnc12 (racemic) showed an IC50 [1] of 2070 nM, an IC50 [2] of over 4600 nM and an EC50 [3, 25] of over 1000 nM.
Molecule COCC(=O)O[C@]1(CCN(C)CCCc2nc3ccccc3[nH]2)C[C@@H]2CC[C@H]1c1ccccc12 (racemic) has an IC50 [1] of 361 nM, an IC50 [2] of 748 nM and an EC50 [3, 25] of 250 nM.
